Legend:
[1] = Heavy metal removal ability test in contaminated soil around a factory (WAK-Me test kit); details: 1.0 wt % aqueous solution, colour comparison test kit
Procedure: The contaminated soil around the factory in the industrial complex was collected, pulverized, and meshed to prepare fine particles of soil samples.
Each 3 ml of aqueous solutions for restoring soil was added to soil samples and mixed for 5 minutes.

[2] = Heavy metal removal ability test in contaminated soil (ICP-MS), nickel; details: for Nickel (Ni) Adsorption amount: contaminated soil; for Nickel (Ni) Adsorption rate: relative to EDTA control
Procedure: (§1) (1) Preparation of Soil Contaminated with Heavy Metal
(§2) After collecting and pulverizing uncontaminated soil, fine particles obtained by using a mesh were mixed with the aqueous heavy metal solution to prepare soil samples contaminated with heavy metals.
(§3) Each 3 ml of the prepared aqueous solution was added to a soil sample contaminated with heavy metals and mixed for 5 minutes.
(§4) 50 ml of distilled water was added to the contaminated soil mixed with the aqueous solution for restoring soil, stirred for 20 minutes, and settled for 1 hour, and a supernatant was prepared as a sample solution.
(§5) The prepared sample solution was analyzed for the heavy metal component using an Inductively Coupled Plasma Mass Spectrometer (ICP-MS) (Xseries™ 2, Thermo Fisher Scientific, UK).
(§6) Adsorption rate of heavy metals (%)=(Adsorption amount of Embodiment/Adsorption amount of Control)×100 Equation 1

[3] = Heavy metal removal ability test in contaminated soil (ICP-MS), cadmium; details: for Cadmium (Cd) Adsorption amount: contaminated soil; for Cadmium (Cd) Adsorption rate: relative to EDTA control
Procedure: as §1, §2, §3, §4, §5, §6

[4] = Formaldehyde (formalin) removing ability test (GC); details: 2.0% formaldehyde solution, 3 molar equivalents of compound, room temperature; for Formaldehyde GC Area, 30 min: after 30 min; for Formaldehyde GC Area, 180 min: after 180 min; for Formaldehyde GC Area, Initial: initial state
[5] = Heavy metal removal ability test in contaminated soil (ICP-MS), arsenic; details: for Arsenic (As) Adsorption amount: contaminated soil; for Arsenic (As) Adsorption rate: relative to EDTA control
Procedure: as §1, §2, §3, §4, §5, §6

human skin = experiment: Skin irritation test of active ingredient (patch method, CTFA guidelines); format: in vivo; details: 24 h patch; for Test result (number of subject) (+) / Test result (number of subject) (++) / Test result (number of subject) (±) / Test result (number of subject) (−): 20 people; for Test result (number of subject) (+): (+) apparent reddening; for Test result (number of subject) (++): (++) more reddened and swollen; for Test result (number of subject) (±): (±) slightly reddish; for Test result (number of subject) (−): (−) no erythema
Procedure: A filter paper disk was placed in an 8 mm diameter, 10 panels of pin chamber.
After 24 hours, the pin chamber was removed, and skin conditions were visually observed. The degree and grade for skin irritation were calculated according to the following Equation 2, and the results are shown in Table 4 below.
[Criteria for Skin Irritation]
(−): No erythema or particularly no symptoms; (±): slightly reddish than the periphery; (+): Apparent reddening than periphery; (++): More reddened and swollen than periphery.
[Grade for Skin Irritation]
Degree of irritation 0-0.1: Grade I (unstimulated);
Degree of irritation 0.11-0.3: Grade II (weakly stimulated);
Degree of irritation 0.31-0.5: Grade III (moderately stimulated);
Degree of irritation 0.51 or more: Grade IV (strongly stimulated)

| Structure (SMILES) | Total amount (Cu, Zn, Mn, Ni, Cd) [1] | Nickel (Ni) Adsorption amount ([2]; content 0.5% aqueous solution) | Nickel (Ni) Adsorption rate ([2]; content 0.5%) | Nickel (Ni) Adsorption amount ([2]; content 1.0% aqueous solution) | Nickel (Ni) Adsorption rate ([2]; content 1.0%) | Nickel (Ni) Adsorption amount ([2]; content 2.0% aqueous solution) | Nickel (Ni) Adsorption rate ([2]; content 2.0%) | Cadmium (Cd) Adsorption amount ([3]; content 0.5% aqueous solution) | Cadmium (Cd) Adsorption rate ([3]; content 0.5%) | Cadmium (Cd) Adsorption amount ([3]; content 1.0% aqueous solution) | Cadmium (Cd) Adsorption rate ([3]; content 1.0%) | Cadmium (Cd) Adsorption amount ([3]; content 2.0% aqueous solution) | Cadmium (Cd) Adsorption rate ([3]; content 2.0%) | Formaldehyde GC Area, 30 min [4] | Formaldehyde GC Area, 180 min [4] | Formaldehyde GC Area, Initial [4] | Arsenic (As) Adsorption amount ([5]; content 0.5% aqueous solution) | Arsenic (As) Adsorption rate ([5]; content 0.5%) | Arsenic (As) Adsorption amount ([5]; content 1.0% aqueous solution) | Arsenic (As) Adsorption rate ([5]; content 1.0%) | other results |
| --- | --- | --- | --- | --- | --- | --- | --- | --- | --- | --- | --- | --- | --- | --- | --- | --- | --- | --- | --- | --- | --- |
| O=C(O)c1ccc(N2CCCN(c3ccc(C(=O)O)cc3)CCN(c3ccc(C(=O)O)cc3)CCCN(c3ccc(C(=O)O)cc3)CC2)cc1 [Embodiment 10, 4,4′,4″,4′″-(1,4,8,11-tetraazacyclotetradecane-1,4,8,11-tetrayl)tetrabenzoic Acid] | ≤5 ppm | 79 ppm | 161% | 92 ppm | 188% | 94 ppm | 192% | 58 ppm | 141% | 65 ppm | 159% | 71 ppm | 173% | 0.171 mAU*min | 0 mAU*min | 0.305 mAU*min | 39 ppm | 156% | 42 ppm | 168% | Arsenic (As) Adsorption amount ([5]; content 2.0% aqueous solution): 46 ppm; Arsenic (As) Adsorption rate ([5]; content 2.0%): 184%; Test result (number of subject) (+) (human skin; content 0.1 wt %): 0; Test result (number of subject) (++) (human skin; content 0.1 wt %): 0; Test result (number of subject) (±) (human skin; content 0.1 wt %): 0; Test result (number of subject) (−) (human skin; content 0.1 wt %): 20; Degree of irritation (human skin; content 0.1 wt %): 0; Grade for skin irritation (human skin; content 0.1 wt %): I (Degree of irritation 0-0.1: Grade I (unstimulated)); Test result (number of subject) (+) (human skin; content 0.5 wt %): 0; Test result (number of subject) (++) (human skin; content 0.5 wt %): 0; Test result (number of subject) (±) (human skin; content 0.5 wt %): 0; Test result (number of subject) (−) (human skin; content 0.5 wt %): 20; Degree of irritation (human skin; content 0.5 wt %): 0; Grade for skin irritation (human skin; content 0.5 wt %): I (Degree of irritation 0-0.1: Grade I (unstimulated)); Test result (number of subject) (+) (human skin; content 1.0 wt %): 0; Test result (number of subject) (++) (human skin; content 1.0 wt %): 0; Test result (number of subject) (±) (human skin; content 1.0 wt %): 1; Test result (number of subject) (−) (human skin; content 1.0 wt %): 19; Degree of irritation (human skin; content 1.0 wt %): 0.05; Grade for skin irritation (human skin; content 1.0 wt %): I (Degree of irritation 0-0.1: Grade I (unstimulated)) |
| O=C(O)CN(CCN(CCN(CC(=O)O)CC(=O)O)CC(=O)O)CCN(CC(=O)O)CC(=O)O [Embodiment 1, 3,6,9,12-tetrakis(carboxymethyl)-3,6,9,12-tetraazatetradecanedioic Acid] | ≤5 ppm | 91 ppm | 186% | 101 ppm | 206% | 112 ppm | 229% | 74 ppm | 180% | 79 ppm | 193% | 84 ppm | 205% | 0.170 mAU*min | 0 mAU*min | 0.305 mAU*min | 48 ppm | 192% | 50 ppm | 200% | Arsenic (As) Adsorption amount ([5]; content 2.0% aqueous solution): 53 ppm; Arsenic (As) Adsorption rate ([5]; content 2.0%): 212%; Test result (number of subject) (+) (human skin; content 0.1 wt %): 0; Test result (number of subject) (++) (human skin; content 0.1 wt %): 0; Test result (number of subject) (±) (human skin; content 0.1 wt %): 0; Test result (number of subject) (−) (human skin; content 0.1 wt %): 20; Degree of irritation (human skin; content 0.1 wt %): 0; Grade for skin irritation (human skin; content 0.1 wt %): I (Degree of irritation 0-0.1: Grade I (unstimulated)); Test result (number of subject) (+) (human skin; content 0.5 wt %): 0; Test result (number of subject) (++) (human skin; content 0.5 wt %): 0; Test result (number of subject) (±) (human skin; content 0.5 wt %): 1; Test result (number of subject) (−) (human skin; content 0.5 wt %): 19; Degree of irritation (human skin; content 0.5 wt %): 0.05; Grade for skin irritation (human skin; content 0.5 wt %): I (Degree of irritation 0-0.1: Grade I (unstimulated)); Test result (number of subject) (+) (human skin; content 1.0 wt %): 0; Test result (number of subject) (++) (human skin; content 1.0 wt %): 0; Test result (number of subject) (±) (human skin; content 1.0 wt %): 4; Test result (number of subject) (−) (human skin; content 1.0 wt %): 16; Degree of irritation (human skin; content 1.0 wt %): 0.20; Grade for skin irritation (human skin; content 1.0 wt %): II (Degree of irritation 0.11-0.3: Grade II (weakly stimulated)) |
| O=C(O)CN1CCN(CC(=O)O)CCN(CC(=O)O)CCN(CC(=O)O)CC1 [Embodiment 5, 2,2′,2″,2′″-(1,4,7,10-tetraazacyclododecane-1,4,7,10-tetrayl)tetraacetic Acid] | ≤5 ppm | 83 ppm | 169% | 85 ppm | 173% | 89 ppm | 182% | 60 ppm | 146% | 66 ppm | 161% | 74 ppm | 180% | 0.179 mAU*min | 0 mAU*min | 0.305 mAU*min | 41 ppm | 164% | 46 ppm | 184% | Arsenic (As) Adsorption amount ([5]; content 2.0% aqueous solution): 53 ppm; Arsenic (As) Adsorption rate ([5]; content 2.0%): 212%; Test result (number of subject) (+) (human skin; content 0.1 wt %): 0; Test result (number of subject) (++) (human skin; content 0.1 wt %): 0; Test result (number of subject) (±) (human skin; content 0.1 wt %): 0; Test result (number of subject) (−) (human skin; content 0.1 wt %): 20; Degree of irritation (human skin; content 0.1 wt %): 0; Grade for skin irritation (human skin; content 0.1 wt %): I (Degree of irritation 0-0.1: Grade I (unstimulated)); Test result (number of subject) (+) (human skin; content 0.5 wt %): 0; Test result (number of subject) (++) (human skin; content 0.5 wt %): 0; Test result (number of subject) (±) (human skin; content 0.5 wt %): 0; Test result (number of subject) (−) (human skin; content 0.5 wt %): 20; Degree of irritation (human skin; content 0.5 wt %): 0; Grade for skin irritation (human skin; content 0.5 wt %): I (Degree of irritation 0-0.1: Grade I (unstimulated)); Test result (number of subject) (+) (human skin; content 1.0 wt %): 0; Test result (number of subject) (++) (human skin; content 1.0 wt %): 0; Test result (number of subject) (±) (human skin; content 1.0 wt %): 1; Test result (number of subject) (−) (human skin; content 1.0 wt %): 19; Degree of irritation (human skin; content 1.0 wt %): 0.05; Grade for skin irritation (human skin; content 1.0 wt %): I (Degree of irritation 0-0.1: Grade I (unstimulated)) |
| O=C(O)c1cncc(N2CCN(c3cncc(C(=O)O)c3)CCN(c3cncc(C(=O)O)c3)CCN(c3cncc(C(=O)O)c3)CC2)c1 [Embodiment 7, 5,5′,5″,5′″-(1,4,7,10-tetraazacyclododecane-1,4,7,10-tetrayl)tetranicotinic Acid] | ≤5 ppm | 92 ppm | 188% | 97 ppm | 198% | 102 ppm | 208% | 62 ppm | 151% | 72 ppm | 176% | 76 ppm | 185% | 0.181 mAU*min | 0 mAU*min | 0.305 mAU*min | 41 ppm | 164% | 45 ppm | 180% | Arsenic (As) Adsorption amount ([5]; content 2.0% aqueous solution): 51 ppm; Arsenic (As) Adsorption rate ([5]; content 2.0%): 204%; Test result (number of subject) (+) (human skin; content 0.1 wt %): 0; Test result (number of subject) (++) (human skin; content 0.1 wt %): 0; Test result (number of subject) (±) (human skin; content 0.1 wt %): 0; Test result (number of subject) (−) (human skin; content 0.1 wt %): 20; Degree of irritation (human skin; content 0.1 wt %): 0; Grade for skin irritation (human skin; content 0.1 wt %): I (Degree of irritation 0-0.1: Grade I (unstimulated)); Test result (number of subject) (+) (human skin; content 0.5 wt %): 0; Test result (number of subject) (++) (human skin; content 0.5 wt %): 0; Test result (number of subject) (±) (human skin; content 0.5 wt %): 0; Test result (number of subject) (−) (human skin; content 0.5 wt %): 20; Degree of irritation (human skin; content 0.5 wt %): 0; Grade for skin irritation (human skin; content 0.5 wt %): I (Degree of irritation 0-0.1: Grade I (unstimulated)); Test result (number of subject) (+) (human skin; content 1.0 wt %): 0; Test result (number of subject) (++) (human skin; content 1.0 wt %): 0; Test result (number of subject) (±) (human skin; content 1.0 wt %): 0; Test result (number of subject) (−) (human skin; content 1.0 wt %): 20; Degree of irritation (human skin; content 1.0 wt %): 0; Grade for skin irritation (human skin; content 1.0 wt %): I (Degree of irritation 0-0.1: Grade I (unstimulated)) |
